Earlier results as cited in patent US11208380B2, “Process for the purification of caprolactam from a solution of crude caprolactam without organic solvent extraction” (AquafilSLO d.o.o., priority 2017, dated 2021).

Row | Compound | LD50, rat, oral administration [mg/kg]
1 | c1ccccc1 [Benzene] | 930
2 | ClC=C(Cl)Cl [Trichloroethylene] | 5400
